Earlier results in EP0548940B1, “Insecticidal compositions” (SUMITOMO CHEMICAL COMPANY LIMITED, priority 1991, dated 1993).

Conditions: at 25°C, water-diluted solution

pKa value | Compound
Boric acid 4.8 (9.24) | OB(O)O [Boric acid]
Azelaic acid 4.8 (4.39) | O=C(O)CCCCCCCC(=O)O [Azelaic acid]
